Key:
[1] = biological target: serotonin transporter (SERT) (Homo sapiens, UniProt P31645); assay: Serotonin reuptake inhibition, [3H]-5-HT, cells transfected with 5-HT transporter cDNA; conditions: for Triple reuptake inhibition (Ratio %) SERT: compound 1 μM, relative to control without compound (100%), lower value = stronger inhibition
Protocol: (§1) After removing the medium, each compound of Examples or Comparative Examples diluted to 1 μM in uptake buffer was added to a concentration of 200 μL/well and cultured at 37° C. for 15 minutes. 100 μL of uptake buffer containing 20-30 nM [3H]-DA was added and cultured at 37° C. for 5 minutes. The reaction solution was quickly removed and washed three times with 1 mL ice-cold uptake buffer. After dissolving the resultant in 1% SDS (0.5 mL), the degree of binding of radioisotope-labeled dopamine to the transporter was measured.
(§2) For norepinephrine(NE) and serotonin(5-HT), the degree of binding of radioisotope-labeled norepinephrine or serotonin to the transporter was measured in the same manner as above, except that cells transfected with NE or 5-HT transporter cDNA were used and [3H]-NE or [3H]-5-HT was used as a substrate.
(§3) In addition, when evaluating the reuptake inhibitory effect on dopamine, norepinephrine, and serotonin, the same method was performed without treating each compound of Examples or Comparative Examples as a control, the degree of binding of radioisotope-labeled dopamine, norepinephrine, and serotonin to the transporter was measured, and by using this as a reference (100%), the triple reuptake inhibitory effect was evaluated as a relative ratio (Ratio %). That is, in the control group, the binding of dopamine, norepinephrine, and serotonin to transporters is not inhibited, but when each compound of Examples is treated and thus the binding is inhibited, the Ratio % value decreases.

[2] = biological target: norepinephrine transporter (NET) (Homo sapiens, UniProt P23975); assay: Norepinephrine reuptake inhibition, [3H]-NE, cells transfected with NE transporter cDNA; conditions: for Triple reuptake inhibition (Ratio %) NET: compound 1 μM, relative to control without compound (100%), lower value = stronger inhibition
Chain of norepinephrine transporter (NET) (P23975 whole entry, species assumed): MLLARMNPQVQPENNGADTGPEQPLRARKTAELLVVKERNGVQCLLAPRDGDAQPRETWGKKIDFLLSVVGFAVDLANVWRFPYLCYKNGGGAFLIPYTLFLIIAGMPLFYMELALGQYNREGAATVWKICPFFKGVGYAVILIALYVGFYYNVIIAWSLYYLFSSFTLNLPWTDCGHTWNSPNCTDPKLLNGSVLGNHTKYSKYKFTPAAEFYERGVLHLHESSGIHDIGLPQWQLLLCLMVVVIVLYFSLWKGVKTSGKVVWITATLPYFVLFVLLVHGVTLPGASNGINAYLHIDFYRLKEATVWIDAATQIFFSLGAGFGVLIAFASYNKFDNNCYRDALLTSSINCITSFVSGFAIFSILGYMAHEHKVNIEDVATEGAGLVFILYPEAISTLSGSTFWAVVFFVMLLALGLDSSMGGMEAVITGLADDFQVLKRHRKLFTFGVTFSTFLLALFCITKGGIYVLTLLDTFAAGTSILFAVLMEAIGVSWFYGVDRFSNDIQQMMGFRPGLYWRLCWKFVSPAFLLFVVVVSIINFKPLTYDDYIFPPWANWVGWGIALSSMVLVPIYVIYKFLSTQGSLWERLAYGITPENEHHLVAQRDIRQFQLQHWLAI
Protocol: as §1, §2, §3

[3] = biological target: dopamine transporter (DAT) (Homo sapiens, UniProt Q01959); assay: Dopamine reuptake inhibition, [3H]-DA, HEK-293 cells transfected with dopamine transporter cDNA; conditions: for Triple reuptake inhibition (Ratio %) DAT: compound 1 μM, relative to control without compound (100%), lower value = stronger inhibition
Chain of dopamine transporter (DAT) (Q01959 whole entry, species assumed): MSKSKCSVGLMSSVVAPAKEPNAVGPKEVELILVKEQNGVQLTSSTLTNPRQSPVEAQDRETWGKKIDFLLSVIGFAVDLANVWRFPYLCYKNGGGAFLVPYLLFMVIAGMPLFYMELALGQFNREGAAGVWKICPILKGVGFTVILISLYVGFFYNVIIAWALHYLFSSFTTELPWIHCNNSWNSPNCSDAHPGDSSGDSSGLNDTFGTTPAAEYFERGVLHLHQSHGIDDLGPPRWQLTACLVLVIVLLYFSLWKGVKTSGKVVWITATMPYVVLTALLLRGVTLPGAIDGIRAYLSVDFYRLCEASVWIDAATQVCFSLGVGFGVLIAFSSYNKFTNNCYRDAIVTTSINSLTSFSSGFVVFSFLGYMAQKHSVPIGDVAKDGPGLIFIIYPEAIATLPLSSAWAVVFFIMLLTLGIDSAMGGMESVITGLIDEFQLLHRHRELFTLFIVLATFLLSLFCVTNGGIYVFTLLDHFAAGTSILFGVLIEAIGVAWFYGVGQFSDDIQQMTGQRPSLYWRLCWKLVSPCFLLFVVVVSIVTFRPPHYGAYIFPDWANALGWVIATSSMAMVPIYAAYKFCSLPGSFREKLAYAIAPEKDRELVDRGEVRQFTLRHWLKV
Protocol: as §1, §3

Chain of serotonin transporter (SERT) (P31645 whole entry, species assumed): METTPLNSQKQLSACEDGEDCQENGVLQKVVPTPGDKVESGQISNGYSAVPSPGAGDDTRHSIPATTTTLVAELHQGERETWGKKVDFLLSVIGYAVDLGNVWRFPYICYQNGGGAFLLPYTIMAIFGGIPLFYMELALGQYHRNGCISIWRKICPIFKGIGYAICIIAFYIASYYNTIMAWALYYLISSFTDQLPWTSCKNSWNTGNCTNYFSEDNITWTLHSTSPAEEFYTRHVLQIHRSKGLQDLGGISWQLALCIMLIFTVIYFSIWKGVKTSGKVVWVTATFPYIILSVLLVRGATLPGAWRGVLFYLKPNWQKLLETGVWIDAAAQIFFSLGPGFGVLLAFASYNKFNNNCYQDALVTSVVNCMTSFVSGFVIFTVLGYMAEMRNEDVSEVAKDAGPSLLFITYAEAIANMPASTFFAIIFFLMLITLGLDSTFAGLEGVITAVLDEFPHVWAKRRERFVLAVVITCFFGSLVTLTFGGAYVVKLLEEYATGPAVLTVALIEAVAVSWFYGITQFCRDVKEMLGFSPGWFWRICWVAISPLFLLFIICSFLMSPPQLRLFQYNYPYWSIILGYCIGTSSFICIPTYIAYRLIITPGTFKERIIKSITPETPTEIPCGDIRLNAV

Row | Compound | IC50 [1] | Triple reuptake inhibition (Ratio %) SERT [1] | IC50 [2] | Triple reuptake inhibition (Ratio %) NET [2] | IC50 [3] | Triple reuptake inhibition (Ratio %) DAT [3]
1 | c1ccc(CC2CCN(Cc3nnc(-c4cc5ccccc5[nH]4)[nH]3)CC2)cc1 [Example 1, 2-(5-((4-benzylpiperidin-1-yl)methyl)-4H-1,2,4-triazol-3-yl)-1H-indole] | 3730 nM | 91.56% | 343 nM | 26.06% | 170 nM | 14.90%
2 | Fc1ccc2[nH]c(-c3nnc(CN4CCC(Cc5ccccc5)CC4)[nH]3)cc2c1 [Example 2, 2-(5-((4-benzylpiperidin-1-yl)methyl)-4H-1,2,4-triazol-3-yl)-5-fluoro-1H-indole] | 5200 nM | 67.47% | 14 nM | 2.58% | 83 nM | 3.94%
3 | c1ccc(C2CCN(Cc3nnc(-c4cc5ccccc5[nH]4)[nH]3)CC2)cc1 [Example 3, 2-(5-((4-phenylpiperidin-1-yl)methyl)-4H-1,2,4-triazol-3-yl)-1H-indole] | – | 95.94% | – | 124.39% | – | 81.14%
4 | c1ccc(CN2CCN(Cc3nnc(-c4cc5ccccc5[nH]4)[nH]3)CC2)cc1 [Example 4, 2-(5-((4-benzylpiperazin-1-yl)methyl)-4H-1,2,4-triazol-3-yl)-1H-indole] | – | 90.26% | – | 64.76% | – | 22.39%
5 | Clc1ccc(CC2CCN(Cc3nnc(-c4cc5ccccc5[nH]4)[nH]3)CC2)cc1Cl [Example 5, 2-(5-((4-(3,4-dichlorobenzyl)piperidin-1-yl)methyl)-4H-1,2,4-triazol-3-yl)-1H-indole] | – | 91.11% | – | 78.01% | – | 88.53%
6 | COc1ccc(CC2CCN(Cc3nnc(-c4cc5ccccc5[nH]4)[nH]3)CC2)cc1 [Example 6, 2-(5-((4-(4-methoxybenzyl)piperidin-1-yl)methyl)-4H-1,2,4-triazol-3-yl)-1H-indole] | – | 70.39% | – | 88.83% | – | 88.63%
7 | Clc1ccc(CC2CCN(Cc3nnc(-c4cc5ccccc5[nH]4)[nH]3)CC2)cc1 [Example 7, 2-(5-((4-(4-chlorobenzyl)piperidin-1-yl)methyl)-4H-1,2,4-triazol-3-yl)-1H-indole] | – | 79.48% | – | 103.43% | – | 73.88%
8 | Clc1cccc(CC2CCN(Cc3nnc(-c4cc5ccccc5[nH]4)[nH]3)CC2)c1 [Example 8, 2-(5-((4-(3-chlorobenzyl)piperidin-1-yl)methyl)-4H-1,2,4-triazol-3-yl)-1H-indole] | – | 88.65% | – | 66.48% | – | 32.29%
9 | c1ccc(CC2CCN(Cc3nnc(-c4ccccc4)[nH]3)CC2)cc1 [Example 9, 4-benzyl-1-((5-phenyl-4H-1,2,4-triazol-3-yl)methyl)piperidine] | – | 95.15% | – | 73.45% | – | 32.29%
10 | COc1cc2cc(-c3nnc(CN4CCC(Cc5ccccc5)CC4)[nH]3)[nH]c2cc1OC [Example 12, 2-(5-((4-benzylpiperidin-1-yl)methyl)-4H-1,2,4-triazol-3-yl)-5,6-dimethoxy-1H-indole] | 1150 nM | 63.05% | 36 nM | 3.38% | 174 nM | 5.96%
11 | COc1ccc2[nH]c(-c3nnc(CN4CCC(Cc5ccccc5)CC4)[nH]3)cc2c1 [Example 13, 2-(5-((4-benzylpiperidin-1-yl)methyl)-4H-1,2,4-triazol-3-yl)-5-methoxy-1H-indole] | 1210 nM | 60.60% | 70 nM | 4.78% | – | 10.00%
12 | Clc1ccc2[nH]c(-c3nnc(CN4CCC(Cc5ccccc5)CC4)[nH]3)cc2c1 [Example 14, 2-(5-((4-benzylpiperidin-1-yl)methyl)-4H-1,2,4-triazol-3-yl)-5-chloro-1H-indole] | 1660 nM | 74.39% | 173 nM | 5.84% | 16 nM | 7.44%
13 | Cc1ccc2[nH]c(-c3nnc(CN4CCC(Cc5ccccc5)CC4)[nH]3)cc2c1 [Example 15, 2-(5-((4-benzylpiperidin-1-yl)methyl)-4H-1,2,4-triazol-3-yl)-5-methyl-1H-indole] | 25000 nM | 83.60% | 1110 nM | 49.82% | 173 nM | 21.04%
14 | Fc1ccc2cc(-c3nnc(CN4CCC(Cc5ccccc5)CC4)[nH]3)[nH]c2c1 [Example 16, 2-(5-((4-benzylpiperidin-1-yl)methyl)-4H-1,2,4-triazol-3-yl)-6-fluoro-1H-indole] | 3650 nM | 80.93% | 501 nM | 36.38% | 48 nM | 12.06%
15 | N#Cc1ccc2[nH]c(-c3nnc(CN4CCC(Cc5ccccc5)CC4)[nH]3)cc2c1 [Example 17, 2-(5-((4-benzylpiperidin-1-yl)methyl)-4H-1,2,4-triazol-3-yl)-1H-indol-5-carbonitrile] | 945 nM | 50.31% | 226 nM | 11.66% | 83 nM | 9.25%
16 | COc1ccc2cc(-c3nnc(CN4CCC(Cc5ccccc5)CC4)[nH]3)[nH]c2c1 [Example 18, 2-(5-((4-benzylpiperidin-1-yl)methyl)-4H-1,2,4-triazol-3-yl)-6-methoxy-1H-indole] | 1580 nM | 66.40% | 611 nM | 22.07% | 76 nM | 37.07%
17 | COc1cccc2cc(-c3nnc(CN4CCC(Cc5ccccc5)CC4)[nH]3)[nH]c12 [Example 19, 2-(5-((4-benzylpiperidin-1-yl)methyl)-4H-1,2,4-triazol-3-yl)-7-methoxy-1H-indole] | 1170 nM | 81.23% | 188 nM | 15.80% | 247 nM | 21.23%
18 | COC(=O)c1ccc2[nH]c(-c3nnc(CN4CCC(Cc5ccccc5)CC4)[nH]3)cc2c1 [Example 20, methyl 2-(5-((4-benzylpiperidin-1-yl)methyl)-4H-1,2,4-triazol-3-yl)-1H-indol-5-carboxylate] | 643 nM | 50.14% | 748 nM | 38.22% | 80 nM | 5.14%
19 | c1ccc(CC2CCN(Cc3nnc(-c4ccc5ccccc5c4)[nH]3)CC2)cc1 [Example 21, 4-benzyl-1-((5-(naphthalen-2-yl)-4H-1,2,4-triazol-3-yl)methyl)piperidine] | 2090 nM | 50.05% | 619 nM | 27.49% | 259 nM | 20.41%
20 | c1ccc(CC2CCN(Cc3nnc(-c4c[nH]c5ccccc45)[nH]3)CC2)cc1 [Example 22, 3-(5-((4-benzylpiperidin-1-yl)methyl)-4H-1,2,4-triazol-3-yl)-1H-indole] | 945 nM | 47.99% | 644 nM | 32.07% | 187 nM | 19.30%
21 | FC(F)(F)c1ccc2[nH]c(-c3nnc(CN4CCC(Cc5ccccc5)CC4)[nH]3)cc2c1 [Example 23, 2-(5-((4-benzylpiperidin-1-yl)methyl)-4H-1,2,4-triazol-3-yl)-5-(trifluoromethyl)-1H-indole] | – | 125.38% | – | 90.00% | – | 46.60%
22 | Clc1cccc2[nH]c(-c3nnc(CN4CCC(Cc5ccccc5)CC4)[nH]3)cc12 [Example 24, 2-(5-((4-benzylpiperidin-1-yl)methyl)-4H-1,2,4-triazol-3-yl)-4-chloro-1H-indole] | – | 109.21% | – | 26.69% | – | 6.56%
23 | c1ccc(CC2CCN(Cc3nnc(-c4cc5ccccc5o4)[nH]3)CC2)cc1 [Example 25, 1-((5-(benzofuran-2-yl)-4H-1,2,4-triazol-3-yl)methyl)-4-benzylpiperidine] | – | 73.17% | – | 76.00% | – | 26.92%
24 | CC(=O)Nc1ccc2[nH]c(-c3nnc(CN4CCC(Cc5ccccc5)CC4)[nH]3)cc2c1 [Example 66, N-(2-(5-((4-benzylpiperidin-1-yl)methyl)-4H-1,2,4-triazol-3-yl)-1H-indol-5-yl)acetamide] | – | – | – | 58.77% | – | 51.59%
25 | CCCCOc1ccc2cc(-c3nnc(CN4CCC(Cc5ccccc5)CC4)[nH]3)[nH]c2c1 [Example 69, 2-(5-((4-benzylpiperidin-1-yl)methyl)-4H-1,2,4-triazol-3-yl)-6-butoxy-1H-indole] | – | – | – | 90.43% | – | 50.33%

— patent US20230212144A1, “5-MEMBERED HETEROARYL DERIVATIVE CONTAINING AT LEAST ONE N, AND PHARMACEUTICAL COMPOSITION FOR PREVENTING OR TREATING MENTAL DISORDERS, CONTAINING SAME AS ACTIVE INGREDIENT” (DAEGU-GYEONGBUK MEDICAL INNOVATION FOUNDATION, priority 2020, published 2023)
